Laboratory results from patent US20140128461A1, “USE OF A FOOD COMPOSITION IN THE TREATMENT AND/OR PREVENTION OF NEUROPATHIC PAIN INDUCED BY AN ANTICANCER AGENT” (priority 2010, published 2014).

Experiments:
[1] = test system: chronic neuropathy induced by oxaliplatin in rat; experiment: Thermal Place Preference Test 20° C. vs. 30° C., chronic neuropathy model, preventive diet
Protocol: The rats were distributed among plastic cages with 4 rats per cage. The cages were placed in an air-conditioned room at 22° C.±2° C., with controlled hygrometry (50%), a day/night 12-hour lighting cycle, and free access to food and water.
Two types of compositions were used: • a composition containing a quantity of polyamines equivalent to that present in a daily food diet (Putrescine: 54 mg/kg, Cadaverine: 37 mg/kg, Spermidine: 27 mg/kg, Spermine: 7 mg/kg), • a composition with low polyamine content comprising less than 1600 picomoles/g polyamines (Putrescine<0.01 mg/kg, Cadaverine<0.01 mg/kg, Spermidine<0.01 mg/kg, Spermine<0.01 mg/kg).
The different types of diets (diet based on a composition comprising a normal content of polyamines or PCD (Polyamine Containing Diet) and a diet based on a composition with low polyamines content called PDD (Polyamine Deficient Diet)) were given as soon as the rats arrived in the animal housing facility i.e. one week before the start of experiments.
The Thermal Place Preference Test (Bioseb®, Chaville, France) is formed of two adjacent metal plates surrounded by a chamber in opaque Plexiglas. The rat is placed in the chamber and is free to move from one plate to the other. The first plate called the <<reference plate>> is held at ambient temperature (25-30° C.) and the second plate called the <<test plate>> is held at a cold temperature. Using an infrared camera connected to a computer, the time that the animal spends on each plate is measured, together with the number of movements between the two plates. Each session lasts 3 minutes. Habituation of the animals consists of placing the rats on the apparatus for 3 minutes several times a day maintaining the two plates at a temperature of 25° C. […] Three pairs of temperatures were chosen for the experiments in relation to the model examined:

[2] = test system: NR2B subunit of the NMDA receptors; experiment: Western blot of NR2B expression and phosphorylation in the dorsal horn of the spinal cord; type: in vivo, rat; conditions: D3 after oxaliplatin 6 mg/kg ip, polyamine-containing diet, vs control animals
Protocol: The dorsal corn of the spinal cord (L4-L6) was isolated on an ice block and immediately frozen in liquid nitrogen. The samples were then stored at −80° C. until analysis.
The tissue samples were subjected to cell lysis at 4° C. performed with 300 μL of stop buffer (50 mM Hepes, 150 mM NaCl, 10 mM EDTA, 10 mM Na2P2O7, 10 mM vanadate, 2 mM Na3VO4, 100 mM NaF, 1% Triton, 0.5 mM PMSF, 100 UI/mL Iniprol and 20 μM Leupeptine, pH 7.5). After sonication (1 to 2 minutes at 4° C.), the sample was centrifuged at 14000 rpm at 4° C. and the supernatant collected. This centrifuging step was repeated once. The supernatant contained the cytoplasmic and membrane proteins assayed by colorimetry (BC Assay UP40840A®, Interchim). […] The proteins were then transferred onto a nitrocellulose membrane (Millipore) for 2 hours in a transfer buffer (25 mM Tris, 190 mM glycine, 20% methanol, pH 8.3). The membranes were hybridised with the corresponding antibodies overnight at 4° C. […] The Western-Blots were scanned with an image analyser ChemiDoc™ XRS System, Bio-rad®) and the density of each band was quantified using computer software (Image Lab™ software, Bio-rad®)). […] The results are expressed as a percentage of the control group (non-treated group receiving a diet containing polyamines, PCD CT).

[3] = test system: chronic neuropathy induced by oxaliplatin in rat; experiment: Thermal Place Preference Test 20° C. vs. 30° C., chronic neuropathy model, curative diet (PDD from D15); conditions: rats on PCD diet
Protocol: The Thermal Place Preference Test (Bioseb®, Chaville, France) is formed of two adjacent metal plates surrounded by a chamber in opaque Plexiglas. The rat is placed in the chamber and is free to move from one plate to the other. The first plate called the <<reference plate>> is held at ambient temperature (25-30° C.) and the second plate called the <<test plate>> is held at a cold temperature. Using an infrared camera connected to a computer, the time that the animal spends on each plate is measured, together with the number of movements between the two plates. Each session lasts 3 minutes. Habituation of the animals consists of placing the rats on the apparatus for 3 minutes several times a day maintaining the two plates at a temperature of 25° C.

SMILES: O=C1[O][Pt]2([NH][C@@H]3CCCC[C@H]3[NH]2)[O]C1=O [oxaliplatin]
- change in time spent on the test plate (20° C.) vs control rats on PCD diet ([1]; D10, p<0.001): −42%
- change in time spent on the test plate (20° C.) vs control rats on PCD diet ([1]; D15, p<0.001): −32%
- change in time spent on the test plate (20° C.) vs control rats on PCD diet ([1]; D22, p<0.001): −24%
- change in time spent on the test plate (20° C.) vs control rats on PCD diet ([1]; D29, p<0.05): −20%
- expression of the NR2B subunit [2]: No variation
- phosphorylation of the NR2B subunit on tyrosine sites 1472 and 1336 and serine site 1303 [2]: No variation
- change in time spent on the test plate (20° C.) vs control rats ([3]; D4 (maximal), p<0.01): −46%
- change in time spent on the test plate (20° C.) vs control rats ([3]; D39, p<0.01): −15%
